± gives the standard deviation of the averaged measurements.
What was measured:
[1] = compound: C[C@H](CN(C)C)Oc1nc(Nc2cc3cccc(Cl)c3cn2)cnc1C#N; assay: surviving fraction relative to DMSO-only wells; higher = less growth inhibition; conditions: exposure time: 5 days
Summary of the method: (§1)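 Viability was scored with CellTiter-Glo luminescence and normalised to the median of DMSO-only wells as surviving fraction. Beforehand, log-phase tumour cell lines were seeded at 250–500 cells per well in 384-well plates, allowed 24 hours, and exposed continuously for five days to inhibitors at 0.5, 1, 5, 10, 50, 100, 500 and 1000 nM. Only lines whose three screens gave replicate Pearson r >0.7 and median Z' >0.3 were kept.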

[2] = compound: CCc1cc(Nc2nccc(-c3c(-c4ccc(OC)c(C(=O)Nc5c(F)cccc5F)c4)nc4ccccn34)n2)c(OC)cc1N1CCC(N2CCN(S(C)(=O)=O)CC2)CC1; assay: as above; conditions: exposure time: 5 days
Summary of the method: as §1

Row | Test System | surviving fraction ([1]; 0.5 nM) | surviving fraction ([1]; 1 nM) | surviving fraction ([1]; 5 nM) | surviving fraction ([1]; 10 nM) | surviving fraction ([1]; 50 nM) | surviving fraction ([1]; 100 nM) | surviving fraction ([1]; 500 nM) | surviving fraction ([1]; 1000 nM) | surviving fraction ([2]; 0.5 nM) | surviving fraction ([2]; 1 nM) | surviving fraction ([2]; 5 nM) | surviving fraction ([2]; 10 nM) | surviving fraction ([2]; 50 nM) | surviving fraction ([2]; 100 nM) | surviving fraction ([2]; 500 nM) | surviving fraction ([2]; 1000 nM)
1 | MDAMB436 BREAST | 0.927 ± 0.072 | 0.927 ± 0.15 | 0.963 ± 0.14 | 0.959 ± 0.13 | 0.953 ± 0.11 | 0.808 ± 0.14 | 0.641 ± 0.1 | 0.451 ± 0.077 | 1.01 ± 0.065 | 0.997 ± 0.064 | 0.933 ± 0.063 | 0.965 ± 0.041 | 0.961 ± 0.11 | 0.967 ± 0.071 | 1.04 ± 0.07 | 0.887 ± 0.11
2 | MDAMB453 BREAST | 1.04 ± 0.025 | 1.09 ± 0.063 | 1.11 ± 0.058 | 1.06 ± 0.025 | 1.1 ± 0.051 | 1.1 ± 0.056 | 0.596 ± 0.074 | 0.273 ± 0.012 | 1.02 ± 0.037 | 1.09 ± 0.12 | 1.14 ± 0.043 | 1.08 ± 0.054 | 1.12 ± 0.029 | 1.16 ± 0.031 | 1.02 ± 0.061 | 1.07 ± 0.086
3 | MDAMB468 BREAST | 0.976 ± 0.074 | 1.01 ± 0.043 | 1.08 ± 0.035 | 1.071 ± 0.0092 | 1.03 ± 0.036 | 1.03 ± 0.041 | 0.54 ± 0.039 | 0.223 ± 0.017 | 0.909 ± 0.09 | 1.04 ± 0.053 | 1.12 ± 0.047 | 1.14 ± 0.041 | 1.04 ± 0.091 | 1.17 ± 0.073 | 1.04 ± 0.07 | 1.06 ± 0.041
4 | MFM223 BREAST | 1.27 ± 0.17 | 1.09 ± 0.057 | 1.15 ± 0.14 | 1.09 ± 0.094 | 1.08 ± 0.093 | 1.14 ± 0.18 | 0.8 ± 0.048 | 0.526 ± 0.17 | 1.14 ± 0.05 | 1.15 ± 0.036 | 1.1 ± 0.08 | 1.15 ± 0.027 | 1.15 ± 0.012 | 1.21 ± 0.06 | 1.19 ± 0.033 | 1.05 ± 0.079
5 | MG63 BONE | 1.03 ± 0.042 | 1.05 ± 0.035 | 1.05 ± 0.037 | 1.06 ± 0.025 | 1.11 ± 0.031 | 1.12 ± 0.047 | 1.05 ± 0.051 | 0.889 ± 0.045 | 0.953 ± 0.012 | 0.987 ± 0.028 | 1.005 ± 0.01 | 1.06 ± 0.026 | 0.968 ± 0.034 | 1.01 ± 0.014 | 0.956 ± 0.029 | 0.976 ± 0.047
6 | MHM BONE | 1.02 ± 0.031 | 1.03 ± 0.012 | 1.04 ± 0.026 | 1.07 ± 0.06 | 1.031 ± 0.0078 | 1.05 ± 0.02 | 1.063 ± 0.0031 | 0.999 ± 0.018 | 0.97 ± 0.021 | 0.974 ± 0.032 | 1.03 ± 0.011 | 0.998 ± 0.011 | 1.027 ± 0.0053 | 1 ± 0.03 | 0.982 ± 0.055 | 0.975 ± 0.029
7 | NCIH441 LUNG | 1.1 ± 0.07 | 1.01 ± 0.04 | 1.1 ± 0.035 | 1.19 ± 0.053 | 1.17 ± 0.026 | 1.16 ± 0.11 | 0.86 ± 0.051 | 0.531 ± 0.031 | 0.964 ± 0.035 | 0.977 ± 0.13 | 0.99 ± 0.029 | 0.989 ± 0.059 | 0.997 ± 0.04 | 1.07 ± 0.065 | 0.917 ± 0.072 | 0.979 ± 0.092
8 | NOS1 BONE | 1.09 ± 0.18 | 1.05 ± 0.082 | 0.999 ± 0.066 | 1.02 ± 0.076 | 0.875 ± 0.046 | 0.709 ± 0.12 | 0.252 ± 0.0046 | 0.253 ± 0.0087 | 1 ± 0.038 | 1.05 ± 0.051 | 1.16 ± 0.14 | 1.35 ± 0.26 | 1.22 ± 0.21 | 1.14 ± 0.12 | 1.12 ± 0.11 | 0.949 ± 0.043
9 | NY BONE | 0.9707 ± 0.0081 | 0.948 ± 0.042 | 1.01 ± 0.026 | 1.01 ± 0.015 | 1 ± 0.029 | 0.854 ± 0.06 | 0.119 ± 0.0045 | 0.0907 ± 0.0051 | 0.969 ± 0.012 | 0.982 ± 0.027 | 1.023 ± 0.0066 | 1.09 ± 0.014 | 1.03 ± 0.039 | 1.04 ± 0.023 | 0.993 ± 0.025 | 0.977 ± 0.024
